How the values were obtained:
[1] = Leaching test: measurement of a leakage (leaching rate); assay type: biochemical; conditions: hydrophobic material alone, 37° C., 90 min, mean of three ± SD
Description: The leakage (leaching rate) was determined according to the method described by K. Kono et al., Bioconjugate Chem., 2008 19 1040-1048 and evaluated using an EYPC liposome including Pyranine serving as a fluorescent substance and DPX serving as a quencher.
3000 nmol of EYPC dissolved in chloroform was measured and placed in a 10 mL eggplant flask and converted to a thin film by use of a rotary evaporator (BuCHI). 500 μL of a Pyranine solution (Pyranine: 35 mM, DPX: 50 mM, MES: 25 mM, pH 7.4) was added, followed by dispersion with use of an ultrasonic irradiator (USC-J) and passage through a polycarbonate film having a pore size of 100 nm by use of an extruder to obtain a uniform particle size. Using an MES buffer (MES: 25 mM, NaCl: 125 mM, pH 7.4) and a G100 column, an outer water layer was substituted to obtain a dispersion of EYPC liposomes including the fluorescent substance. The concentration of the choline group of the phospholipid was determined by use of the phospholipid C test Wako and was adjusted by use of an MES buffer (MES: 25 mM, NaCl: 125 mM, pH 7.4) in such a way as to obtain 1.0 mmol/L of the phospholipid. […] The DOPE-Chems and DOPE-oleic acid were, respectively, measured in an acetic acid buffer (acetic acid: 25 mM, NaCl: 125 mM).
With respect to other samples, measurement at a pH of 4.0 to 3.0 was carried out by use of an acetic acid buffer.
It will be noted that the leakage was calculated in such a way that in case where the EYPC liposome dispersion alone was used, it was taken as 0% and a value obtained in case where 30 μL of a 10-fold diluted Triton-X100 was added was taken as 100%.
More particularly, the leakage was calculated according to the following equation. In the following equation, a measured fluorescence intensity is represented by L, a fluorescence intensity of a dispersion alone of EYPC liposomes including a fluorescent substance is represented by L0, and a fluorescence intensity in case where Triton-X100 was added is represented by L100. Leakage (%)=(L−L0)/(L100−L0)×100 Fusion Test: Measurement of Fusion (Membrane Fusion)

RAW cells [2] = assay: Evaluation of cytosolic delivery using a fluorescence-labeled peptide; assay type: cell-based; conditions: 14 μg of the fluorescence-labeled peptide/well, overnight, three hours post-incubation; FIG. 19, 20
Description: OVA-257-264-Rh was chosen as a model peptide. 140 μg/ml of a fluorescence-labeled peptide solution was prepared by use of PBS passed through a 0.22 μm filter and used for the preparation of a carrier. Cells used were RAW cells, and culture was carried out by use of an incubator (MCO20AIC) set at 5% CO2 and 37° C. The RAW cells were spread on a matsunami glass bottom dish on the day before the charge of the carrier and cultured in a 10% FBS-containing MEM medium.
After rinsing the cells with PBS, the medium was substituted with 1900 μL of a fresh 10% FBS-containing MEM medium, into which 100 μL of the respective samples was charged. Incubation was continued over 16 to 20 hours and the cells were rinsed at least three times with PBS. Thereafter, 2 mL of a fresh 10% FBS-containing MEM medium was added, following by three hours post-incubation. The cells were rinsed with PBS, followed by substitution with a DMEM-without-Phenol-Red medium and observation of the cells through a fluorescence microscope Axiovert 200M—soft: Axio vision 3.0—light source: Fluo Arc

RAW cells [3] = assay: Cytosolic delivery of β-gal; assay type: cell-based; conditions: 16 to 20 hours incubation, three hours post-incubation; FIG. 21
Description: Using PBS passed through a 0.22 μm filter, there was prepared a 1.4 mg/mL of β-gal solution. […] On the day before charge, the RAW cells were spread on a matsunami glass bottom dish and cultured, and the cells were rinsed with PBS immediately before charge. The culture was carried out by use of an incubator (MCO 20 AIC) set at 5% CO2 and 37° C. and a 10% FBS-containing MEM medium. After substitution with 1900 μL of a fresh 10% FBS-containing MEM medium, 100 μL of the respective samples was charged, followed by 16 to 20 hours incubation. The cells were rinsed at least three times with PBS. Thereafter, 2 mL of a fresh 10% FBS-containing MEM medium was added, following by three hours post-incubation. The cells were rinsed with PBS, followed by staining the cells with use of a β-Galactosidase Staining Kit (purchased from Takara Bio Inc.), and observing the cells through a microscope (Axiovert 200M—soft: Axio vision 3.0). The staining was carried out in accordance with the recommendation of the kit.

Molecule | Hydrophobic material only Leakage (%) ([1]; pH 5.0) | Hydrophobic material only Leakage (%) ([1]; pH 7.4) | localisation of fluorescence-labeled peptide in cells (cytosolic delivery) (RAW cells [2]) | staining of cells by β-gal enzymatic activity (cytosolic delivery) (RAW cells [3])
CC(=O)Oc1c(C)c(C)c2c(c1C)CCC(C)(CCC[C@H](C)CCC[C@H](C)CCCC(C)C)O2 (mixture of isomers) [α-Tocopherol acetate, DL-α-tocopherol acetate] | 7.0 ± 2.1 | 5.9 ± 0.2 |  | 
Cc1c(C)c2c(c(C)c1O)CCC(C)(CCCC(C)CCCC(C)CCCC(C)C)O2 (racemic) [α-Tocopherol, DL-α-tocopherol] | 8.8 ± 0.6 | 5.4 ± 0.2 |  | 
CCCCO [1-Butanol] | 11.1 ± 0.5 | 8.8 ± 0.1 |  | 
CCCCCCCCCCCCO [1-Dodecanol] | 9.1 ± 0.8 | 7.9 ± 0.2 |  | 
CCCCCCCCCCCCCCCCCCCCO [1-Eicosanol] | 8.6 ± 0.5 | 7.6 ± 0.4 |  | 
CCCCCCCCCCCCCCCCO [1-Hexadodecanol, 1-Hexadecanol] | 11.0 ± 0.5 | 9.0 ± 0.9 |  | 
CCCCCCCCO [1-Octanol] | 11.7 ± 0.1 | 9.0 ± 0.3 |  | 
CCCCCCCCCCCCCCCC(=O)OC[C@H](O)[C@H]1OC(=O)C(O)=C1O [Ascorbyl palmitate] | 9.9 ± 1.0 | 1.7 ± 0.1 |  | 
O=C(OCc1ccccc1)c1ccccc1 [Benzyl benzoate] | 9.7 ± 0.5 | 7.3 ± 2.0 |  | 
CC(C)CCC[C@@H](C)[C@H]1CC[C@H]2[C@@H]3CC=C4C[C@@H](O)CC[C@]4(C)[C@H]3CC[C@]12C [Cholesterol, cholesterol] | 7.6 ± 0.5 | 4.8 ± 0.1 |  | 
CCCCCCCCCCCC(=O)OCC [Ethyl laurate] | 11.9 ± 1.2 | 8.7 ± 0.9 |  | 
CCCCCCCC/C=C\CCCCCCCC(=O)OCC [Ethyl oleate] | 11.2 ± 1.3 | 7.9 ± 0.2 |  | 
CCCCCCCC/C=C\CCCCCCCC(=O)OCC(CO)OC(=O)CCCCCCC/C=C\CCCCCCCC (stereo not drawn) [Glycerol dioleate] | 7.4 ± 0.6 | 7.2 ± 0.5 |  | 
CCCCCCCCCCCCCCCCCC(=O)OCC(CO)OC(=O)CCCCCCCCCCCCCCCCC (stereo not drawn) [Glycerol distearate] | 11.0 ± 1.4 | 8.0 ± 0.2 |  | 
N[C@@H](Cc1c[nH]cn1)C(=O)O [L-Histidine, L-histidine] | 8.9 ± 0.5 | 6.7 ± 0.4 |  | 
N[C@@H](Cc1ccccc1)C(=O)O [L-Phenylalanine] | 10.7 ± 0.4 | 7.9 ± 0.5 |  | 
OC[C@H]1O[C@@H](O[C@H]2[C@H](O)[C@@H](O)C(O)O[C@@H]2CO)[C@H](O)[C@@H](O)[C@H]1O (stereo partly drawn) [Lactose] | 8.9 ± 0.2 | 6.1 ± 0.2 |  | 
CCCCCCCCCCCC(=O)O [Lauric acid] | 14.2 ± 0.4 | 6.2 ± 0.4 |  | 
CCCCCCCCCC(=O)OCC(O)CO (stereo not drawn) [Monocaprin, Glycerol monocaprate] | 8.1 ± 0.2 | 4.0 ± 2.6 |  | 
CCCCCCCC(=O)OCC(O)CO (stereo not drawn) [Monocaprylin, Glycerol monocaprylate] | 8.5 ± 0.4 | 4.9 ± 1.8 |  | 

Molecule | Hydrophobic material only Leakage (%) ([1]; pH 5.0) | Hydrophobic material only Leakage (%) ([1]; pH 7.4) | localisation of fluorescence-labeled peptide in cells (cytosolic delivery) (RAW cells [2]) | staining of cells by β-gal enzymatic activity (cytosolic delivery) (RAW cells [3])
CCCCCCCCCCCC(=O)OCC(O)CO (stereo not drawn) [Monolaurin, Glycerol monolaurate] | 5.6 ± 0.4 | 3.6 ± 0.3 |  | 
CCCCCCCCCCCCCC(=O)OCC(O)CO (stereo not drawn) [Monomyristin, Glycerol monomyristate] | 5.4 ± 0.1 | 3.8 ± 0.3 |  | 
CCCCCCCC/C=C\CCCCCCCC(=O)OCC(O)CO (stereo not drawn) [Monoolein, Glycerol monooleate] | 8.3 ± 0.4 | 6.3 ± 0.4 |  | 
CCCCCCCCCCCCCCCC(=O)OCC(O)CO (stereo not drawn) [Monopalmitin, Glycerol monopalmitate] | 8.1 ± 0.7 | 7.8 ± 2.5 |  | 
CCCCCCCCCCCCCCCCCC(=O)OCC(O)CO (stereo not drawn) [Monostearin, Glycerol monostearate] | 9.6 ± 0.6 | 7.9 ± 1.0 |  | 
CCCCCCCC/C=C\CCCCCCCC(=O)[O-].[Na+] [Oleic acid, Sodium oleate] | 76.0 ± 2.3 | 2.2 ± 0.1 |  | 
CCCOC(=O)c1ccc(O)cc1 [Propyl paraoxybenzoate, propyl paraoxybenzoate] | 7.9 ± 0.1 | 5.4 ± 0.2 |  | 
CC(C)CCCC(C)CCCC(C)CCCCC(C)CCCC(C)CCCC(C)C (stereo not drawn) [Squalane, squalane] | 9.4 ± 0.5 | 7.8 ± 0.6 |  | 
CC(C)=CCC/C(C)=C/CC/C(C)=C/CC/C=C(\C)CC/C=C(\C)CCC=C(C)C [Squalene] | 9.0 ± 0.5 | 5.4 ± 0.4 |  | 
CCCCCC(=O)OCC(COC(=O)CCCCC)OC(=O)CCCCC [Tricaproin, tricaproin] | 8.4 ± 0.9 | 6.9 ± 0.9 |  | 
CCCCCCCC(=O)OCC(COC(=O)CCCCCCC)OC(=O)CCCCCCC [Tricaprylin, tricaprylin] | 9.0 ± 1.1 | 6.8 ± 0.9 |  | 
Cyclodextrin | 9.0 ± 0.7 | 6.3 ± 0.6 |  | 
fluorescence-labeled peptide alone: Fluorescence-labeled peptide: OVA257-264-Rh |  |  | remained in the endosome | 
sorbitan monolaurate [SPAN 20] | 10.1 ± 0.4 | 5.7 ± 0.7 |  | 
sorbitan monooleate [SPAN 80] | 10.0 ± 0.7 | 5.1 ± 0.5 |  | 
sorbitan palmitic acid ester [SPAN 40] | 20.8 ± 1.4 | 14.9 ± 0.8 |  | 
sorbitan stearic acid ester [SPAN 60] | 17.5 ± 0.4 | 7.9 ± 0.3 |  | 
sorbitan trioleic acid ester [SPAN 85] | 17.7 ± 1.2 | 5.2 ± 0.4 |  | 
sorbitan tristearate [SPAN 65] | 13.0 ± 0.3 | 4.2 ± 0.4 |  | 
β-D-galactosidase [β-gal alone] |  |  |  | not stained

Source: patent US10765751B2, “pH sensitive carrier and preparation method thereof, and pH sensitive drug and pH sensitive drug composition each containing the carrier, and method for treating or preventing diseases using the same” (TERUMO KABUSHIKI KAISHA, priority 2012, dated 2020)
